In patent US9334267B2, “RAF inhibitor compounds” (Deciphera Pharmaceuticals, LLC, priority 2012, dated 2016):

System: A375 V600E xenograft tumor
Assay: A375 rat xenograft efficacy model
Format: in vivo, rats
Conditions: orally twice a day at 10 and 20 mg/kg for 21 days
Description: To further evaluate in vivo activity of compounds of Formula I, A375 V600E (ATCC) and HCT-116 K—Ras mutant B-Raf wild type (ATCC) xenograft tumor models are used. Briefly, 10×10^6 cells (A375) or 5×10^6 cells (HCT-116) in a 1:1 medium and matrigel mix (0.2 mL total volume) are implanted by subcutaneous injection in the hind leg of nude female rats (NIH model No. NIHRNU-M from Taconic). A total of 8 rats in each group are used for the efficacy study, and a total of 3-4 rats in each group are used for a pharmacodynamic study. Treatment is initiated with oral administration (gavage) of test compound or vehicle (20% Captisol®, 25 mM phosphate, pH 2.0) in 0.6 mL volume when tumor size reaches approximately 500 mg. Test compound is orally dosed twice a day for 21 days. Tumor growth and body weight are monitored over time to evaluate activity and signs of toxicity. Bidimensional measurements of tumors are performed twice a week and tumor volumes are calculated based on mid-axis length and mid-axis width. Tumor volume data are transformed to a log scale to equalize variance across time and treatment groups. The log volume data are analyzed with a two-way repeated measures analysis of variance by time and treatment using the MIXED® procedures in SAS® software (version 8.2). The correlation model for the repeated measures is spatial power. […]

Q: Which results are given for `CNc1ncc2cc(-c3cc(NC(=O)NCCC4(C)CC4)c(F)cc3C)c(C)nc2n1` [Example 24, 1-(2-Fluoro-4-methyl-5-(7-methyl-2-(methylamino)pyrido[2,3-d]pyrimidin-6-yl)phenyl)-3-(2-(1-methylcyclopropyl)ethyl)urea]?
A: tumor growth (both dosing groups): tumor growth inhibition and tumor growth regression; animal body weight (either group): no animal body weight loss
